Assays:
[1] = system: patients with relapsing forms of clinically definite multiple sclerosis; assay: Oral Cladribine in the treatment of relapsing forms of MS (Example 1 protocol); assay type: in vivo, human
Source text: The efficacy and safety of oral Cladribine administration, eventually multi-dose administration, according to the invention can be assessed for example following the protocol below:
A study of sixty patients with relapsing forms of clinically definite multiple sclerosis is undertaken. Each patient is first examined for normal hepatic, renal, and bone marrow functioning to establish baseline values.
Patients are selected from Male or Female, between 18 and 55 years of age who had one or more relapses within the prior 12 months. Female patients are non-pregnant female.
Each of the patients in Groups 2 and 3 receives 3 mg or 10 mg 2-CdA (1, 2 or 3 administration(s) a day depending on the patient's weight) combined in cyclodextrin formulation as described in WO 2004/087101, Example 3. The Compositions of the Cladribine formulations in 3 mg or 10 mg 2-CdA tablets containing hydroxypropyl-beta-cyclodextrin are listed in Table 2 below:
In Group 1 patients receive a placebo (saline) for 4 months followed by 8 months of no treatment.
Patients are monitored to determine whether there is any progression or improvement of brain lesions associated with progression of MS through MRI scans and neurological examination as described in Miller et al., 1996, above; Evans et al., 1997, above; Sipe et al., 1984, above; and Mattson, 2002, above. All patients have a baseline and MRI study (brain or spinal cord, according to localization of the lesions) at month 12.
The patient's disability progression and the time for having a first relapse are monitored as well as the proportion of relapse-fee patients at 24 months.
Lymphocyte markers and monocyte counts are monitored in the patients.

[2] = system: patients with multiple sclerosis; details: with the highest doses; i.v. or s.c.; cited from earlier work
[3] = system: patients with remitting-relapsing multiple sclerosis; details: 6 monthly courses of 5 days, total dose about 4-5.7 mg/kg, cited from earlier work
[4] = system: patients with primary progressive (PP) or secondary progressive (SP) multiple sclerosis; details: Phase III; 0.07 mg/kg/day s.c., repeated for 2 or 6 months; cited from earlier work
[5] = system: patients with Chronic Progressive MS and Relapsing-Remitting MS; details: Phase II; 0.1 mg/kg/day i.v. 7 days x 4 months or 0.07 mg/kg/day s.c. 5 days x 6 months; cited from earlier work
[6] = oral, succession of an induction treatment and maintenance treatments

Nc1nc(Cl)nc2c1ncn2[C@H]1C[C@H](O)[C@@H](CO)O1 [Cladribine, 2-chloro-2′ deoxyadenosine]
brain lesions (MRI scans) ([1]; Groups 2 and 3: oral 2-CdA total dose 1.75 mg/kg or 3.5 mg/kg): decrease in brain lesions
adverse effects [1, 6]: no severe adverse effect is observed
efficacy of regimen on brain lesions [1, 6]: efficient in decreasing brain lesions
adverse effects (AEs) [2]: increased incidence of infections related to compromised immune function or myelosuppression
therapeutic efficacy of oral regimen versus i.v. infusion therapy [3]: questioned
side effects versus i.v. infusion study ([3]; oral): less severe
MRI-measured brain lesions [4]: positive on the significant reduction of MRI-measured brain lesions
effects on EDSS, SNRS scores and MRI findings [5]: positive effects

— patent US8377903B2, “Cladribine regimen for treating multiple sclerosis” (Merck Serono SA, priority 2004, dated 2013)
